Measurements reported in PMC10095932 (Molecules, 2023).
Where a SMILES comes first, the peptide text is derived from it. Bridges are numbered along the chain shown (N, C = ends).

Key:
human NPR-A = biological target: T1, human NPR-A (Homo sapiens, UniProt P16066); test: cGMP ALPHAscreen, cGMP production in HEK 293 cells transiently overexpressing hNPR-A; assay type: cell-based; settings: HEK 293 cells overexpressing hNPR-A
T1 construct: expressed in transfected cells; host or cells: HEK 293 cells, transient, Lipofectamine 2000
T1 sequence (P16066 33-1061): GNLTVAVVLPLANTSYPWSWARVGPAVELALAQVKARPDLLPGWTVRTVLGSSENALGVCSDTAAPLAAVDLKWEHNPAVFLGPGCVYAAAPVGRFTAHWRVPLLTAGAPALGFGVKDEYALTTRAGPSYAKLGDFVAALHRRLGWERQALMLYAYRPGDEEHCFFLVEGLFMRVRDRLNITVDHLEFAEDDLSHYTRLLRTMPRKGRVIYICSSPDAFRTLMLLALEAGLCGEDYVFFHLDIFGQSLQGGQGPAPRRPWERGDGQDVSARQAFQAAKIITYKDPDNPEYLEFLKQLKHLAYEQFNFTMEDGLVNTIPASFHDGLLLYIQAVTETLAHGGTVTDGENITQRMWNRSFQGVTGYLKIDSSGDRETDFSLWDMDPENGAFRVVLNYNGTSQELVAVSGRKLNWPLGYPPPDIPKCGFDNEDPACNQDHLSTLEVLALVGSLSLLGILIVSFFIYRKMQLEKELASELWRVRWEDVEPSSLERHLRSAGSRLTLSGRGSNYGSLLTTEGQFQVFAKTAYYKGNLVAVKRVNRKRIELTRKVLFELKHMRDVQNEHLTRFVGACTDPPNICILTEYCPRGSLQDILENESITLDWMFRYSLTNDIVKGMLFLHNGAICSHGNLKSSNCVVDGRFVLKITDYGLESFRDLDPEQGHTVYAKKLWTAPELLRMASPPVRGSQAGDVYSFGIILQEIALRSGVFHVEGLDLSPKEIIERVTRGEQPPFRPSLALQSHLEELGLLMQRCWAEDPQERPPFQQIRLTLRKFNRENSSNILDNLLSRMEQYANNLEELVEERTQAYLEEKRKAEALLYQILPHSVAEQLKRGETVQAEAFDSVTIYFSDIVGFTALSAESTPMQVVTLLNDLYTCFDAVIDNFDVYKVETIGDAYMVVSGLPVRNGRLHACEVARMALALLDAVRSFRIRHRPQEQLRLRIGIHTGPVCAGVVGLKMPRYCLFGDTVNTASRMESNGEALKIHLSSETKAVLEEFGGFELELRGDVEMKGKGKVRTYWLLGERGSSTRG
Experimental: Cells were cultured at 5% CO2 and 37 °C. HEK 293 cells were cultured in high glucose DMEM (Gibco, Carlsbad, CA, USA) supplemented with 10% FBS, and 1% penicillin/streptomycin. HEK 293 cells were seeded in media lacking penicillin/streptomycin 24 to 48 h pre-transfection. PC12 cells were cultured in high glucose DMEM (Gibco) supplemented with 10% FBS and 1% penicillin/streptomycin.
HEK 293 cells were transfected using the lipofectamine 2000 transfection protocol (Invitrogen). Cells (95% confluence) were transfected with 45% pcDNA3.1/hNPR-A, 45% pcDNA3.1, and 10% pEGFP-NI to the optimal DNA concentration specified in the protocol. The co-transfection with pEGFP-NI plasmid allowed the determination of the transfection efficiency. This was assessed by the estimation of the number of GFP-expressing cells using an Olympus IX70 inverted fluorescence microscope. Transfected cells were used for assay purposes within 24 h.
The cGMP ALPHAscreen was performed using the ALPHAscreen Protein A detection kit and the biotinylated cGMP supplement (Perkin Elmer, Waltham, MA, USA) with rabbit anti-cGMP polyclonal antibody (Biovision, Mountain View, CA, USA). Cells were detached from the flask and the resulting pellet was resuspended in stimulation buffer (HBSS supplemented with 0.1% w/v BSA and 1 mM IBMX at 37 °C). Cells were added to a white 384-well Optiplate (Perkin Elmer, Waltham, USA) to 30,000 cells per well for HEK 293 cells and 10,000 cells per well for PC12 cells. Cells were incubated with different concentrations of test peptides (concentration range of 1 × 10^−5 to 1 × 10^−11 M in stimulation buffer) at 37 °C for 30 min. Cells were lysed with lysis buffer (1 M HEPES, 0.3% Tween-20, 1% BSA in H2O, pH 7.4). Then 5 μL acceptor-bead mix was added to each well under subdued lighting conditions, followed by 5 μL of donor-bead mix. Plates were incubated for ~12 h, slowly shaking at room temperature. After incubation, the ALPHAscreen signal was measured using an EnVision plate reader (Perkin Elmer). The standard curve consisted of cGMP in a concentration range of 1 × 10^−6 to 1 × 10^−12 M. All data points were acquired in triplicate and were analyzed using GraphPad Prism 5.0 software (GraphPad Software, Inc., San Diego, CA, USA).

NEP = biological target: T2, NEP (Homo sapiens, UniProt P08473); test: Stability to neutral endopeptidase 24.11 (NEP); assay type: in vitro ADME; settings: 3 h; 100 μL of 500 μM peptide, 500 ng NEP, 100 mM Tris.HCl, 150 mM NaCl, pH 7.4, 37 °C, RP-HPLC peak height
T2 construct: purchased R&D Systems (Minneapolis, MN, USA)
Experimental: NEP and plasmin stability: About 100 μL of 500 μM peptide was incubated with 500 ng NEP (activity 400 pmol min^−1 μg^−1) or 10 μg plasmin (0.51 U mg^−1, 0.51 μmol min^−1 mg^−1) in 100 mM Tris.HCl and 150 mM NaCl (pH 7.4) at 37 °C. Then, 50 μL aliquots were removed at designated times, quenched by heating to 100 °C for 4 min, and stored at −20 °C until subjected to RP-HPLC analysis.

T2 sequence (P08473 whole entry): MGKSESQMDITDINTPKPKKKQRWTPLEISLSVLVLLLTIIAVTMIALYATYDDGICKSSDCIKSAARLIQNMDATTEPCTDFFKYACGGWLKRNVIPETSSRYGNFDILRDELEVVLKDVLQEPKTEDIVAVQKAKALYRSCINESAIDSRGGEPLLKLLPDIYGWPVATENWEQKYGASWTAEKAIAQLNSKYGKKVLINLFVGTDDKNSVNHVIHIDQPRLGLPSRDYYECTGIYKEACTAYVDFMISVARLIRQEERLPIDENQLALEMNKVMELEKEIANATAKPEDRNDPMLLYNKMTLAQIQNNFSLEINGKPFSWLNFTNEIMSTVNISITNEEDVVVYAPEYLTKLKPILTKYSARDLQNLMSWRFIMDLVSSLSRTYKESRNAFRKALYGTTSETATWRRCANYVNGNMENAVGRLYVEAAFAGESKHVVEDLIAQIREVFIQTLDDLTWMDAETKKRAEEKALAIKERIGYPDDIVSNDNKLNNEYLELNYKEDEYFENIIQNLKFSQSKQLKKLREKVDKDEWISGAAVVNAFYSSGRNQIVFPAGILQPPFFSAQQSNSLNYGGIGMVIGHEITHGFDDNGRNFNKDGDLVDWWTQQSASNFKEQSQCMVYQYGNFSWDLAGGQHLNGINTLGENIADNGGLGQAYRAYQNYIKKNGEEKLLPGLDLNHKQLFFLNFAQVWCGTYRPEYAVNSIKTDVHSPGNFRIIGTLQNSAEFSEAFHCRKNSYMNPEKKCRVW

`CC[C@H](C)[C@H](NC(=O)[C@H](CCCCN)NC(=O)[C@H](CO)NC(=O)[C@H](CC(=O)O)NC(=O)[C@@H](N)CO)C(=O)NCC(=O)N[C@@H](CC(N)=O)C(=O)NCC(=O)N[C@H]1CSSC[C@@H](C(=O)N[C@@H](CC(N)=O)C(=O)N[C@@H](CCCNC(=N)N)C(=O)N[C@H](C(=O)N[C@@H](CCSC)C(=O)N[C@@H](CCC(N)=O)C(=O)N[C@@H](CC(N)=O)C(=O)N2CCC[C@H]2C(=O)N2CCC[C@H]2C(=O)N[C@@H](CCCCN)C(=O)N[C@@H](CCCCN)C(=O)N[C@@H](Cc2ccccc2)C(=O)N[C@@H](CO)C(=O)NCC(=O)N[C@@H](CCC(=O)O)C(=O)O)[C@@H](C)CC)NC(=O)CNC(=O)[C@H](CC(C)C)NC(=O)CNC(=O)[C@H](CO)NC(=O)[C@H](C(C)C)NC(=O)[C@H](CO)NC(=O)CNC(=O)[C@H]([C@@H](C)CC)NC(=O)[C@H](CCCNC(=N)N)NC(=O)[C@H](CC(=O)O)NC(=O)[C@H](CC(C)C)NC(=O)[C@@H]2CCCN2C(=O)[C@H](Cc2ccccc2)NC(=O)CNC(=O)[C@H](Cc2ccccc2)NC1=O` [TNPc] (H-SDSKIGNGCFGFPLDRIGSVSGLGCNRIMQNPPKKFSGE-OH; disulfide 9-25) was tested, and the Emax at 10 µM (human NPR-A; HEK293, read-out: cGMP production, % of the maximum response (compared with DNP, hANP, hBNP), at 10 μM) was about 30%, the EC50 (human NPR-A; 30 min at 37 °C, cGMP ALPHAscreen, three separate experiments in triplicate, read-out: hNPR-A EC50 (95% CI), potency to stimulate cGMP production) was over 10 µM and the “state after incubation with NEP” value (NEP) was “remained intact”.
